Holding throughout (assay type): physicochemical
Data set [1] is described as follows: UV-Vis absorption (absorption maximum, extinction coefficient). As to the method:
(§1) Depending on the basic structure and substitution, the absorption maxima lie in the entire range of visible light, with a focus at 500-530 nm. The compounds show a high Stokes shift in the range of 80 nm. The absorption is measured, for example, at 25° C. in aqueous or ethanolic solutions with an extinction of 1.0 using a Specord 205 from Analytik Jena, wherein the aqueous solutions are preferably phosphate-buffered salt solutions (PBS buffer; approx. 100 mM sodium chloride and 100 mM total phosphate) and have a pH of 7.5. For example, the emission is measured at 25° C. in dilute aqueous or ethanolic solutions with an extinction of 0.1 using a FP-6600 spectrofluorometer from Jasco, wherein the dilute aqueous solutions are preferably phosphate-buffered salt solutions (PBS buffer; about 100 mM sodium chloride and 100 mM total phosphate) and have a pH of 7.5.

The nature of data set [2]: Fluorescence emission (emission maximum). As to the method: as §1
Data set [3] in a line: Fluorescence quantum yield. As to the method:
Preferably, the fluorescence quantum yield of a compound according to the invention is 0.1 to 0.95, more preferably 0.5 to 0.9. Fluorescence quantum yields are preferably determined at 25° C. in dilute aqueous or ethanolic solutions with an extinction of 0.1 using a Hamamatsu Absolute Photoluminescence Quantum Yield Measurement System C-9920, wherein the dilute aqueous solutions are preferably phosphate-buffered salt solutions (PBS buffer; about 100 mM sodium chloride and 100 mM total phosphate) and have a pH of 7.5. The compounds thus complement the already commercially available dyes with high Stokes Shift or represent better fluorescent alternatives.

In the case of `CCN(CCCCCC(=O)O)c1ccc2c(c1)OC1=C(S(=O)(=O)[O-])C(=O)CC(C)(C)C1=C2.[Na+]` [Compound 36, 6-[5-carboxypentyl(ethyl)amino]-1,1-dimethyl-3-oxo-2H-xanthene-4-sulfonate Sodium Salt], the values for the ε in data set [1] (UV-Vis in PBS) and in data set [1] (UV-Vis in ethanol) were 30,100 l/mol*cm and 25,000 l/mol*cm, respectively. The results for the λmax in data set [1] (UV-Vis in PBS) and in data set [1] (UV-Vis in ethanol) were 482 nm and 446 nm, respectively. Also, the λem in data set [2] (in PBS) came to 565 nm; in data set [2] (in ethanol), 542 nm. For the same molecule, the QY was found to be 0.66 in data set [3] (in PBS) and 0.90 in data set [3] (in ethanol).

Regarding `CCN(CC)c1ccc2cc3c([o+]c2c1)C=C(NCCCCCC(=O)O)CC3(C)C.[Cl-]` [Compound 3, 6-[[6-(diethylamino)-1,1-dimethyl-2H-xanthene-10-ium-3-yl]amino]hexanoic Acid Chloride Salt], the ε in data set [1] (UV-Vis in PBS) is listed as 39,200 l/mol*cm; in data set [1] (UV-Vis in ethanol), 32,500 l/mol*cm. Further, the values for the λmax in data set [1] (UV-Vis in PBS) and in data set [1] (UV-Vis in ethanol) were 505 nm and 510 nm, respectively. Also, the λem came out at 570 nm in data set [2] (in PBS) and 575 nm in data set [2] (in ethanol). The figures for the QY in data set [3] (in PBS) and in data set [3] (in ethanol) were 0.58 and 0.82, respectively.

As for `CC1(C)CC(NCCCS(=O)(=O)[O-])=Cc2[o+]c3cc(N(CCCCCC(=O)O)CCCS(=O)(=O)[O-])ccc3cc21.[Na+]` [Compound 5, 3-[[6-[5-carboxypentyl(3-sulfonatopropyl)amino]-1,1-dimethyl-2H-xanthene-10-ium-3-yl]amino]propane-1-sulfonate Sodium Salt], the ε is 45,000 l/mol*cm in data set [1] (UV-Vis in PBS) and 49,800 l/mol*cm in data set [1] (UV-Vis in ethanol). Further, the λmax in data set [1] (UV-Vis in PBS) was 505 nm; in data set [1] (UV-Vis in ethanol) it was 512 nm. Moreover, the results for the λem in data set [2] (in PBS) and in data set [2] (in ethanol) were 572 nm and 570 nm, respectively. Besides, the values for the QY in data set [3] (in PBS) and in data set [3] (in ethanol) were 0.72 and 0.87, respectively.

On to `CCN(CCCCCC(=O)O)c1ccc2cc3c([o+]c2c1)C=C(N(C)c1ccc(S(=O)(=O)[O-])cc1)CC3(C)C` [Compound 12, 4-[[6-[5-carboxypentyl(ethyl)amino]-1,1-dimethyl-2H-xanthene-10-ium-3-yl]-methyl-amino]benzenesulfonate], for which the ε in data set [1] (UV-Vis in PBS) is reported as 45,000 l/mol*cm; in data set [1] (UV-Vis in ethanol), 50,000 l/mol*cm. In addition, the λmax came out at 532 nm in data set [1] (UV-Vis in PBS) and 533 nm in data set [1] (UV-Vis in ethanol). The λem in data set [2] (in PBS) is reported as 619 nm; in data set [2] (in ethanol), 610 nm. The QY in data set [3] (in PBS) amounted to 0.26; in data set [3] (in ethanol), 0.51.

With `CCN(CCCCCC(=O)O)c1ccc2cc3c([o+]c2c1)C(S(=O)(=O)[O-])=C(Nc1ccc(S(=O)(=O)[O-])cc1)CC3(C)C.[Na+]` [Compound 14, 6-[5-carboxypentyl(ethyl)amino]-1,1-dimethyl-3-(4-sulfonatoanilino)-2H-xanthene-10-ium-4-sulfonate Sodium Salt], the ε in data set [1] (UV-Vis in PBS) is 40,100 l/mol*cm; in data set [1] (UV-Vis in ethanol), 45,300 l/mol*cm. For the same molecule, the λmax worked out at 545 nm in data set [1] (UV-Vis in PBS) and 542 nm in data set [1] (UV-Vis in ethanol). Besides, the λem was 625 nm in data set [2] (in PBS) and 616 nm in data set [2] (in ethanol). Further, the QY is reported as 0.11 in data set [3] (in PBS) and 0.61 in data set [3] (in ethanol).

Regarding `CC1(C)CC(=O)C(S(=O)(=O)[O-])=C2Oc3cc(N(CCCCCC(=O)O)CCCS(=O)(=O)[O-])ccc3C=C21.[Na+].[Na+]` [Compound 38, 6-[5-carboxypentyl(3-sulfonatopropyl)amino]-1,1-dimethyl-3-oxo-2H-xanthene-4-sulfonate di-sodium SALT], the results for the ε in data set [1] (UV-Vis in PBS) and in data set [1] (UV-Vis in ethanol) were 28,000 l/mol*cm and 31,000 l/mol*cm, respectively. Besides, the λmax in data set [1] (UV-Vis in PBS) came out at 479 nm; in data set [1] (UV-Vis in ethanol), 463 nm. Also, the λem in data set [2] (in PBS) turned out to be 557 nm; in data set [2] (in ethanol), 544 nm. The QY was determined as 0.78 in data set [3] (in PBS) and 0.91 in data set [3] (in ethanol).

Take `CC1=CC(C)(C)N(CCCS(=O)(=O)[O-])c2cc3[o+]c4c(cc3cc21)C(C)(C)CC(N(C)CCCC(=O)O)=C4` [Compound 23, 3-[9-[3-carboxypropyl(methyl)amino]-2,2,4,7,7-pentamethyl-8H-chromeno[3,2-g]quinolin-11-ium-1-yl]propane-1-sulfonate]: the ε is listed as 45,400 l/mol*cm in data set [1] (UV-Vis in PBS) and 55,000 l/mol*cm in data set [1] (UV-Vis in ethanol). The results for the λmax in data set [1] (UV-Vis in PBS) and in data set [1] (UV-Vis in ethanol) were 527 nm and 542 nm, respectively. Besides, the λem in data set [2] (in PBS) and in data set [2] (in ethanol) was 600 nm throughout. Moreover, the QY in data set [3] (in PBS) is given as 0.58; in data set [3] (in ethanol), 0.88.

Take `CCN(CCCCCC(=O)O)c1ccc2cc3c([o+]c2c1)C=C(NCCCS(=O)(=O)[O-])CC3(C)C` [Compound 8, 3-[[6-[5-Carboxypentyl(ethyl)amino]-1,1-dimethyl-2H-xanthene-10-ium-3-yl]amino]propane-1-sulfonate]: the ε is 38,500 l/mol*cm in data set [1] (UV-Vis in PBS) and 41,600 l/mol*cm in data set [1] (UV-Vis in ethanol). Further, the λmax is 509 nm in data set [1] (UV-Vis in PBS) and 511 nm in data set [1] (UV-Vis in ethanol). Moreover, the figures for the λem in data set [2] (in PBS) and in data set [2] (in ethanol) were 578 nm and 571 nm, respectively. Besides, the QY worked out at 0.58 in data set [3] (in PBS) and 0.84 in data set [3] (in ethanol).

With `CN(C1=Cc2[o+]c3cc(N(CCCCCC(=O)O)CCCS(=O)(=O)[O-])ccc3cc2C(C)(C)C1)c1ccccc1` [Compound 9, 3-[5-carboxypentyl-[8,8-dimethyl-6-(N-methylanilino)-7H-xanthene-10-ium-3-yl]amino]propane-1-sulfonate], the figures for the ε in data set [1] (UV-Vis in PBS) and in data set [1] (UV-Vis in ethanol) were 39,000 l/mol*cm and 41,000 l/mol*cm, respectively. For the same molecule, the λmax stood at 523 nm in data set [1] (UV-Vis in PBS) and 531 nm in data set [1] (UV-Vis in ethanol). Further, the values for the λem in data set [2] (in PBS) and in data set [2] (in ethanol) were 600 nm and 601 nm, respectively. Also, the figures for the QY in data set [3] (in PBS) and in data set [3] (in ethanol) were 0,24 and 0.47, respectively.

`CN(C1=Cc2[o+]c3cc(N(CCCCCC(=O)O)CCCS(=O)(=O)[O-])ccc3cc2C(C)(C)C1)c1ccc(S(=O)(=O)[O-])cc1.[Na+]` [Compound 10, 4-[[6-[5-carboxypentyl(3-sulfonatopropyl)amino]-1,1-dimethyl-2H-xanthene-10-ium-3-yl]-methyl-amino]benzenesulfonate sodium Salt]: the values for the ε in data set [1] (UV-Vis in PBS) and in data set [1] (UV-Vis in ethanol) were 44,000 l/mol*cm and 48,000 l/mol*cm, respectively. In addition, the λmax in data set [1] (UV-Vis in PBS) is reported as 527 nm; in data set [1] (UV-Vis in ethanol), 533 nm. Also, the λem was 612 nm in data set [2] (in PBS) and 609 nm in data set [2] (in ethanol). Further, the QY amounted to 0.35 in data set [3] (in PBS) and 0.57 in data set [3] (in ethanol).

For the molecule `CCN(CCCCCC(=O)O)c1ccc2cc3c([o+]c2c1)C=C(N(C)c1ccccc1)CC3(C)C.[Cl-]` [Compound 11, 6-[[8,8-dimethyl-6-(N-methylanilino)-7H-xanthene-10-ium-3-yl]-ethyl-amino]hexanoic Acid Chloride Salt], the figures for the ε in data set [1] (UV-Vis in PBS) and in data set [1] (UV-Vis in ethanol) were 39,000 l/mol*cm and 44,000 l/mol*cm, respectively. In addition, the λmax in data set [1] (UV-Vis in PBS) is 526 nm; in data set [1] (UV-Vis in ethanol), 531 nm. In addition, the λem in data set [2] (in PBS) is recorded as 606 nm; in data set [2] (in ethanol) it was 601 nm. The QY in data set [3] (in PBS) was 0.27; in data set [3] (in ethanol), 0.42.

On to `CCN(CCCCCC(=O)O)c1ccc2cc3c([o+]c2c1)C=C(/C=C1\C=CC=CN1)CC3(C)C.[Cl-]` [Compound 29, 6-[[8,8-dimethyl-6-[(E)-1H-pyridine-2-ylidenemethyl]-7H-xanthene-10-ium-3-yl]-ethyl-amino]hexanoic Acid Chloride Salt], for which, in data set [1] (UV-Vis in ethanol), the ε is recorded as 24,000 l/mol*cm and the λmax is listed as 434 nm. In data set [2] (in ethanol), this molecule registered a λem of 541 nm.

Take `CCN(CC)c1ccc2c(c1)OC1=C/C(=C/C=C3/C(=O)N(CCCCCC(=O)O)C(=O)N(CCCS(=O)(=O)[O-])C3=O)CC(C)(C)C1=C2.[Na+]` [Compound 33, 3-[(5Z)-3-(5-carboxypentyl)-5-[(2E)-2-[6-(diethylamino)-1,1-dimethyl-2H-xanthene-3-ylidene]ethylidene]-2,4,6-trioxo-hexahydropyrimidin-1-yl]propane-1-sulfonate Sodium Salt]: in data set [1] (UV-Vis in ethanol), the ε is given as 67,000 l/mol*cm and the λmax came out at 683 nm. Also, in data set [2] (in ethanol), the λem was 719 nm.

For `CCN(CCCCCC(=O)O)c1ccc2cc3c([o+]c2c1)C=C(Nc1ccccc1)CC3(C)C.[Cl-]` [Compound 13, 6-[(6-anilino-8,8-dimethyl-7H-xanthene-10-ium-3-yl)-ethyl-amino]hexanoic Acid Chloride Salt], the values for the ε in data set [1] (UV-Vis in PBS) and in data set [1] (UV-Vis in ethanol) were 38,000 l/mol*cm and 44,000 l/mol*cm, respectively. The λmax in data set [1] (UV-Vis in PBS) was determined as 526 nm; in data set [1] (UV-Vis in ethanol), 532 nm. The values for the λem in data set [2] (in PBS) and in data set [2] (in ethanol) were 609 nm and 603 nm, respectively.

Turning to `CC1(C)CC(=O)C=C2Oc3cc(N(CCCCCC(=O)O)CCCS(=O)(=O)[O-])ccc3C=C21.[Na+]` [Compound 37, 3-[5-carboxypentyl-(8,8-dimethyl-6-oxo-7H-xanthene-3-yl)amino]propane-1-sulfonate Sodium Salt], the ε is given as 26,000 l/mol*cm in data set [1] (UV-Vis in PBS) and 27,000 l/mol*cm in data set [1] (UV-Vis in ethanol). In addition, the λmax in data set [1] (UV-Vis in PBS) came out at 454 nm; in data set [1] (UV-Vis in ethanol), 439 nm. In addition, the values for the λem in data set [2] (in PBS) and in data set [2] (in ethanol) were 553 nm and 538 nm, respectively.

(Values after US20230159484A1, “FLUORESCENT DYES HAVING HIGH STOKES SHIFT, ON THE BASIS OF BRIDGED BENZOPYRYLIUM SALTS” (DYOMICS GmbH, priority 2020, published 2023).)
